This is an account of results in US20130245006A1, “NOVEL INDOLIZINE DERIVATIVES, AND PREPARATION AND THERAPEUTIC USE THEREOF” (SANOFI, priority 2010, published 2013).

Values after ≈ are worked out from the molar mass of the structure shown.

A word on the solubility: it is the concentration that dissolves in the medium under given conditions.

This series can be described thus: Solubility by HPLC relative to a reference sample. The series is classed as physicochemical. As to conditions: aqueous buffer, phosphate buffer, at the pH given. As for the experimental part:
The evaluation of the solubility of the compounds of the invention is carried out at pH 4 (using a phosphate buffer, […]) by HPLC using an H2O/CH3CN/CH3SO3H gradient, relative to a reference sample (a dilute solution of the product to be evaluated which serves as an internal control). The solubility S results are expressed in mg/ml. Generally, the compounds of the present invention have a solubility S≧4 mg/ml at pH≧4. Among them, mention may be made of the solubilities of the following compounds in the table below: […]
In turn, `CCCCc1cc2cc(C(=O)N(CC)CCC(=O)O)ccn2c1C(=O)c1ccc(CCCN(CCCC)CCCC)cc1` [Compound No. 7, 3-({2-Butyl-3-[4-(3-dibutylaminopropyl)benzoyl]indolizine-7-carbonyl}ethylamino)propionic acid] displayed a solubility of 7200 µg/mL (≈ 12.2 mM).
In turn, `CCCCc1cc2cc(C(=O)N(CC(=O)OC(C)C)C(C)C)ccn2c1C(=O)c1ccc(CCCN(CCCC)CCCC)cc1` [compound 59, ({2-Butyl-3-[4-(3-dibutylaminopropyl)-benzoyl]indolizine-7-carbonyl}-isopropylamino)acetic acid isopropyl ester] returned a solubility of 5700 µg/mL (≈ 9.02 mM).
For `CCCCc1cc2cc(C(=O)N(CC)Cc3nc(C)no3)ccn2c1C(=O)c1ccc(C2CCNCC2)cc1` [compound 80, 2-Butyl-3-(4-piperidin-4-ylbenzoyl)indolizine-7-carboxylic acid ethyl(3-methyl-[1,2,4]oxadizol-5-ylmethyl)amide] the value was 4200 µg/mL (≈ 7.96 mM); for `CCc1cc2cc(C(=O)N(CC(=O)O)C(C)C)ccn2c1C(=O)c1ccc(CCCNC(C)(C)C)cc1` [compound 76, ({3-[4-(3-tert-Butylamino-propyl)benzoyl]-2-ethylindolizine-7-carbonyl}isopropylamino)acetic acid], 6200 µg/mL (≈ 12.3 mM); for `CCCCc1cc2cc(C(=O)N(CC(=O)OC)C(C)C)ccn2c1C(=O)c1ccc(CCCN(CC)CCCC)cc1` [compound 62, [(2-Butyl-3-{4-[3-(butylethylamino)propyl]benzoyl}indolizine-7-carbonyl)isopropylamino]acetic acid methyl ester], 5300 µg/mL (≈ 9.2 mM).
For `CCCCc1cc2cc(C(=O)N(CC)[C@@H](C)C(=O)OC)ccn2c1C(=O)c1ccc(CCCN(CCCC)CCCC)cc1` (stereo in doubt) [compound 69, (S)-2-({2-Butyl-3-[4-(3-dibutylaminopropyl)benzoyl]indolizine-7-carbonyl}ethyl-amino)propionic acid methyl ester] the value was 5720 µg/mL (≈ 9.47 mM); for `CCCCc1cc2cc(C(=O)N(CC(=O)O)C(C)C)ccn2c1C(=O)c1ccc(CCCN(CC)CC)cc1` [compound 75, ({2-Butyl-3-[4-(3-diethylamino-propyl)benzoyl]indolizine-7-carbonyl}isopropylamino)acetic acid], 8400 µg/mL (≈ 15.7 mM).
Turning to `CCc1cc2cc(C(=O)N(CC(=O)OC)C(C)C)ccn2c1C(=O)c1ccc(CCCC2(NC)CCCC2)cc1` [Compound No. 16, [(2-Ethyl-3-(4-[3-(1-methylaminocyclopentyl)propyl]benzoyl}indolizine-7-carbonyl)isopropylamino]acetic acid methyl ester], the solubility was determined as 630 µg/mL (≈ 1.15 mM).
The molecule `CCCCc1cc2cc(C(=O)N(CC(=O)OC)C(C)C)ccn2c1C(=O)c1ccc(CCCN(CCCC)CCCC)cc1` [compound 28, ({2-Butyl-3-[4-(3-dibutylamino-propyl)benzoyl]indolizine-7-carbonyl}isopropyl-amino)acetic acid methyl ester] showed a solubility of 2420 µg/mL (≈ 4.01 mM).
Regarding `CCCCc1cc2cc(C(=O)N(CC)Cc3nnn(C)n3)ccn2c1C(=O)c1ccc(CCCN(CCCC)CCCC)cc1` [Compound No. 9, 2-Butyl-3-[4-(3-dibutylaminopropyl)benzoyl]indolizine-7-carboxylic acid ethyl(2-methyl-2H-tetrazol-5-ylmethyl)amide], the solubility turned out to be 7220 µg/mL (≈ 11.8 mM).
For `CCc1cc2cc(C(=O)N(CC(=O)OC)C(C)C)ccn2c1C(=O)c1ccc(CCC(C)(C)NC2CCCC2)cc1` [Compound No. 19, ({3-[4-(3-Cyclopentylamino-3-methylbutyl)benzoyl]-2-ethylindolizine-7-carbonyl}isopropylamino)acetic acid methyl ester] the value was 7200 µg/mL (≈ 12.9 mM); for `CCc1cc2cc(C(=O)N(CC(=O)OC)C(C)C)ccn2c1C(=O)c1ccc(CCCNC(C)(C)C)cc1` [compound 31, ({3-[4-(3-tert-Butylaminopropyl)benzoyl]-2-ethylindolizine-7-carbonyl}isopropylamino)acetic acid methyl ester], 2800 µg/mL (≈ 5.39 mM).
